Here are results for four molecules from patent publication US20130143884A1, “4-[2-[ [5-METHYL-1-(2-NAPHTALENYL)-1H-PYRAZOL-3-YL]OXY]ETHYL] MORPHOLINE SALTS” (priority 2009, published 2013).

By AUC(0-inf) is commonly meant total exposure, with the tail of the curve extrapolated. Higher therefore signals high exposure. One may read the AUC(0-t) as exposure summed from dosing to a finite time, without extrapolation to infinity. Read a low AUC(0-t) as less exposure. In general, Cmax refers to the maximum level reached in the sampled fluid or tissue. The solubility (thermodynamic) is solubility found after equilibrating the solid with the medium. Broadly, the pKa is the negative logarithm of the acid dissociation constant.

“And” between values parts separate entries of the source, which are not always exact repeats. Identical values can stand only once. Counter-ions that a name gives are not always drawn. Like-named read-outs stand apart in the source and are kept apart here.

The nature of data set [1]: Dissolution and absorption profile in vivo. The following applies: compared with its related base.
Data set [2] is described as follows: Pharmacokinetics in rats after single oral administration (plasma, HPLC with fluorescence detection). It counts as in vivo. Particulars: Wistar Hannover; rat plasma, single oral 25 mg/kg (expressed as compound 63). As to the method: The pharmacokinetics of Example 1 in Wistar Hannover rats following a single oral administration of 25 mg/kg (expressed as compound 63) was tested. For this purpose, plasma samples were collected at different time points and analyzed using HPLC (High pressure liquid chromatography) method with fluorescence detection.
Two groups were used in this test. Group 1 received vehicle and Group 2 received Example 1 at 25 mg/kg with an administration volume of 10 mL/kg.
Blood samples were extracted from the retro-orbital zone at the following time points: pre-dose, 15 min, 30 min, 1 h, 1.5 h, 2 h, 3 h, 4 h, 5 h, 6 h, 8 h and 24 h. Blood was then transferred into heparin-containing plastic tubes. Plasma was obtained by centrifugation at approximately 3000 rpm for 10 min at 4° C. These plasma samples were labeled and frozen at a temperature of approximately −65° C. until analysis.
Samples were analyzed by a previously validated analytical method. Briefly, rat plasma samples were thawed at room temperature and centrifuged at 3000 rpm for 10 min at approximately 4° C. 300 μl of plasma samples were placed into vials and spiked with 30 μl of internal standard working solution. The vials were capped and mixed thoroughly. […]
The peaks corresponding to Example 1 and its internal standard were quantified by fluorescence detection at an excitation wavelength of 260 nm and an emission wavelength of 360 nm. […]
The peak plasma concentration values (Cmax) and the time to reach such concentration (tmax) were obtained directly from the experimental data. The elimination constant (kel) was calculated by linear regression of the last phase of the curve (log concentration vs. time). The elimination half-life (t1/2) was determined with the expression t1/2=0.693/kel. The area under the curve of plasma levels vs. time from zero to the last time determined (AUC0-t) was calculated be means of the trapezoidal method. The area under the curve of plasma levels vs time from zero to infinity (AUC0-∞) was calculated with the expression: AUC0-∞=AUC0-t+Clast/kel, where Clast is the plasma concentration at the last time measured.

The nature of data set [3]: Thermodynamic solubility at pH 7.4. It counts as physicochemical. The protocol: General protocol for thermodynamic solubility at pH 7.4 and pH 2 is described below.
A) Thermodynamic Solubility at pH 7.4
Buffer phosphates pH 7.4 was prepared as follows: • A solution 25 mM of Na2HPO4.12H2O (for 1 l of water, weight 8.96 g) was prepared • A solution 25 mM de KH2PO4 (for 1 l of water weight 3.4 g) was prepared. • 812 ml of disodium phosphate solution+182 ml of potassium phosphate solution were mixed and pH checked according was 7.4.
Samples were equilibrated using: • Stirrer Thermomixer Control of Eppendorf a 25° C. y 1250 rpm • pHmeter with combined electrode of pH semimicro
2 mg in an HPLC vial (by duplicate) was weight and 1 ml of buffer was added. The vial was maintained at 25° C., in the stirrer Thermomixer Comfort., during 24 hours. Centrifugation at 4000 rpm followed during 15 min.
The resulting upper layer was collected with a glass pipette and transferred to the HPLC vials. Again centrifuged and the injector programmed at 2.7 mm high.
Sol.A: 2 mg in 5 ml methanol (400 ug/ml)
Sol.B: 1 ml Sol.A to 10 ml with methanol (40 ug/ml)
Sol.C: 5 ml Sol.B to 50 ml with methanol (4 ug/ml)
Sol.D: 4 ml Sol.C to 10 ml with methanol (1.6 ug/ml)
Sol.E: 5 ml Sol.D to 25 ml with methanol (0.32 ug/ml)
10 μl of all prepared solutions were injected, beginning with the more diluted standard. Blanks were also injected, for checking the absence of contamination.
The standard calibration curve was done (see FIG. 29). Consider Y=area y X=μg injected standard
10 μl of problem compound solution were injected, by duplicate and the average peak area (if quantifiable) interpolated in the standard curve (see Tables 9, 10 and 11 and example below).
Chromatographic Conditions • Column: XBridge C18 (or similar) 2.5 μm 4.6×50 mm • Temperature: 35° C. • Mobile phase: ACN/ammonium bicarbonate 10 mM. • Gradient: 0-3.5 min: from 15% ACN to 95% ACN • 3.5-5 min: 95% ACN • 5-6 min: 95 a 15% ACN • 6-8 min: 15% ACN • Flow: 1.5 ml/min • Detection: around the UV absorption maximum

The nature of data set [4]: Descriptive solubility in water and solvents. The data set is classed as physicochemical.
The next data set in a line: pKa. It counts as physicochemical.
The next data set deals with sigma 1 (σ-1) site (Homo sapiens, UniProt Q99720). The following applies: cited from earlier work.
sigma 1 (σ-1) site, sequence (Q99720 whole entry): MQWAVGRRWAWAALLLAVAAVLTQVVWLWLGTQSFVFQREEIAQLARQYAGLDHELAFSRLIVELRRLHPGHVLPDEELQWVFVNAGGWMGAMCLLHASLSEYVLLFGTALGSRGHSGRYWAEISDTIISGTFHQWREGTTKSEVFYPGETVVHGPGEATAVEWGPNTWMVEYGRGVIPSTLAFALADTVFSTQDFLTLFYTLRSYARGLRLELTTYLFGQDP
For data set [5] the following is noted: treatment and prevention of chronic and acute pain, particularly neuropathic pain; reported in WO 2006/021462; cited from earlier work.
A short description of data set [6]: Solubility of the salts in crystallization screening solvents. The data set is classed as physicochemical. Particulars: initial screening solvents; for the maleate except ethyl acetate.
Protocol: The product obtained in the initial preparation was solved in the minimum amount of crystallization solvent at its boiling temperature or at a maximum of 75° C. […] The mother liquors were cooled to room temperature and kept for 24 hours.
Initially, a crystallization screening of compound 63 with the ten counterions depicted in table 2 was performed, at a 40 mg scale, in the following ten solvents: acetone, ethyl acetate, chloroform, N,N-dimethylformamide, methanol, ethanol, isopropanol, 2-butanol, acetonitrile and tetrahydrofuran. The procedure started with the preparation of equimolar mixtures, from known concentration methanol dissolutions, of compound 63 and the different acid counterions. The resulting crude, after the methanol evaporation, was crystallized from the hot solvents formerly mentioned. Different crystallization strategies were used depending on the solubility of each acid and compound 63 mixture, and therefore the solids were obtained using different procedures. For some acids, the mixture was not soluble in the hot crystallization solvent, obtaining a slurry solid. In other cases, the solid crystallized during room temperature cooling of the solution, or after several days at 4° C. or at −18° C. Finally, in some crystallization attempts, the solid was obtained after slow evaporation of the solvent at room temperature. […]
Another data set deals with sigma 2 (σ-2) site (Homo sapiens, UniProt Q5BJF2). The following applies: cited from earlier work.
sigma 2 (σ-2) site, sequence (Q5BJF2 whole entry): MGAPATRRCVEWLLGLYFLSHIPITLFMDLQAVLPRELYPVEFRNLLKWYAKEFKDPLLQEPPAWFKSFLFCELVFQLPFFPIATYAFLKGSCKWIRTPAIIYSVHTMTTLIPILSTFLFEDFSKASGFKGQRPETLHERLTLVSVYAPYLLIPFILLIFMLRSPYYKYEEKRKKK

As for `Cc1cc(OCCN2CCOCC2)nn1-c1ccc2ccccc2c1` [Example 1, 4-[2-[[5-methyl-1-(2-naphthalenyl)-1H-pyrazol-3-yl]oxy]ethyl]morpholine hydrochloride], the “Dissolution and absorption profile in vivo” value in data set [1] is “better dissolution and absorption profile in vivo than its related base”. In data set [2], this molecule yielded an AUC(0-inf) of 1250 ng·h/mL, an AUC(0-t) of 1220 ng·h/mL and a Cmax of 1.15 µg/mL. Further, in [3] (aqueous buffer, thermodynamic from solid, pH=7.4, phosphate buffer 50 mM, 25° C., 24 hours), the thermodynamic solubility at 24 h amounted to 227 µg/mL. The “Conc. (single injections)” value in [3] (pH 7.4, duplicate samples, duplicate injections, hydrochloride) was 225.5 µg/mL and 229.0 µg/mL and 229.3 µg/mL and 225.3 µg/mL. Also, the “Conc. Mean” value in data set [3] (pH 7.4, mean of 4 injections) turned out to be 227.262 µg/mL. For the same molecule, in data set [4] (1N hydrochloric acid), the “Solubility in 1N hydrochloric acid” value was “freely soluble”. Besides, the “Solubility in 1N sodium hydroxide” value in data set [4] (1N sodium hydroxide) is recorded as “practically insoluble”. In addition, in [4] (acetone), the Solubility in acetone result is on record as “slightly soluble”. Further, the “Solubility in dimethyl sulphoxide” value in [4] (dimethyl sulphoxide) is on record as “freely soluble”. Besides, in data set [4] (ethanol), the Solubility in ethanol result was “sparingly soluble”. Besides, in data set [4] (ethyl acetate), the “Solubility in ethyl acetate” value is listed as “practically insoluble”. Further, the Solubility in methanol result in [4] (methanol) is recorded as “freely soluble”. Besides, in [4] (water), the Solubility in water result is on record as “very soluble”. The pKa in the data set “pKa” (read-out: pKa) came out at 6.73.

`Cc1cc(OCCN2CCOCC2)nn1-c1ccc2ccccc2c1` [compound 63, 4-[2-[[5-methyl-1-(2-naphthalenyl)-1H-pyrazol-3-yl]oxy]ethyl]morpholine]: at sigma 1 (σ-1) site (reported in WO 2006/021462), the Sigma-1 receptor activity entry is listed as “highly selective sigma-1 (σ-1) receptor antagonist”. The pKa in “pKa” is 6.7. In [5], the Analgesic activity entry was “strong analgesic activity”.

With `CCS(=O)(=O)O.Cc1cc(OCCN2CCOCC2)nn1-c1ccc2ccccc2c1` [ethanesulfonate salt], the “Solubility in all the solvents assayed (first set of ten solvents)” value in [6] is > 200000 µg/mL.

In the case of SKF 10047 [reference compound], the “Affinity for the sigma 1 (σ-1) site” value on sigma 1 (σ-1) site is given as “nanomolar”. Moreover, the “Affinity for the sigma 2 (σ-2) site” value at sigma 2 (σ-2) site is “micromolar”.
